From ChEMBL document CHEMBL3867481, “GPR40 agonists for the treatment of type 2 diabetes mellitus: The biological characteristics and the chemical space” (Bioorg Med Chem Lett, 2016) come the findings set out here.

The target in data set [1] is Free fatty acid receptor 1 (Rattus norvegicus, UniProt Q8K3T4). Description: Agonist activity at rat GPR40 expressed in HEK293 cells assessed as increase in intracellular Ca2+ flux by Fluo-4-AM dye based FLIPR assay. The format is functional, cell-based. In general terms: Calcium assays in cells follow changes in intracellular calcium, usually with a dye or a luminescent sensor.
Chain of Free fatty acid receptor 1 (Rattus norvegicus, UniProt Q8K3T4) (Q8K3T4 whole entry): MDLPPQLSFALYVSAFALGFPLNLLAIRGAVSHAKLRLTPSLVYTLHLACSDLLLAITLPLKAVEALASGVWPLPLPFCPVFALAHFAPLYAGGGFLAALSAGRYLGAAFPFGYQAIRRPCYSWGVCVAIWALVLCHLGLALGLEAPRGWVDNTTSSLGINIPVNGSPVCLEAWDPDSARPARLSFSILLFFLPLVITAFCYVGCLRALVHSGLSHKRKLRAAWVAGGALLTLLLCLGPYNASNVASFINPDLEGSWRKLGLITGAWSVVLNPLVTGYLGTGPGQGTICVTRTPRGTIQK

Data set [2] concerns the target T1, Free fatty acid receptor 1 (Homo sapiens, UniProt O14842). In words: Agonist activity at full length recombinant human GPR40 expressed in CHOK1 cells assessed as intracellular IP3 accumulation by fluorescence assay. The format is functional, cell-based, CHO-K1.
For data set [3], the target named is T1, Free fatty acid receptor 1. Description: Agonist activity at flag-tagged human GPR40 expressed in HEK293 cells assessed as increase in intracellular Ca2+ flux by FLIPR assay. The format is functional, cell-based.
For data set [4], the target named is T1, Free fatty acid receptor 1. Description: Agonist activity at human GPR40 expressed in CHOK cells assessed as increase in intracellular Ca2+ flux by Fluo-4 based assay. The format is functional, cell-based.
Data set [5] has as its target T1, Free fatty acid receptor 1. Description: Agonist activity at human GPR40 expressed in CHO cells coexpressing NFAT BLA assessed as increase in intracellular Ca2+ flux by fluo-4-AM dye based FLIPR assay. The format is functional, cell-based.
Data set [6] in a line: Antidiabetic activity in ZDF rat assessed as induction of glucose-stimulated insulin secretion. The format is functional.
The nature of data set [7]: Half life in human. The format is ADME.
The nature of data set [8]: Half life in iv or po dosed dog. The format is ADME, organism-based, Canis lupus familiaris. As to conditions: in vivo.
The nature of data set [9]: Half life in iv or po dosed rat. The format is ADME, organism-based. Particulars: in vivo.
The nature of data set [10]: Half life in iv or po dosed mouse. The format is ADME, organism-based. As to conditions: in vivo.
A short description of data set [11]: Oral bioavailability in monkey. Particulars: rhesus monkey, in vivo. The format is ADME, organism-based, Macaca mulatta.
Data set [12] is described as follows: Oral bioavailability in rat. The format is ADME, organism-based. Particulars: in vivo.
A short description of data set [13]: Oral bioavailability in mouse. The format is ADME, organism-based. Particulars: in vivo.
Data set [14] can be described thus: Oral bioavailability in dog. The format is ADME, organism-based, Canis lupus familiaris. Particulars: in vivo.
Data set [15] in a line: Half life in iv or po dosed monkey. The format is ADME, organism-based, Macaca mulatta. Particulars: rhesus monkey, in vivo.
The next data set relates to Mus musculus. Description: Antidiabetic activity in po dosed albino Balb/c mouse assessed as reduction in plasma glucose AUC administered qd for 3 days measured on day 4 administered 60 mins prior to glucose challenge measured up to 60 mins post glucose challenge by intraperitoneal glucose tolerance test. The format is functional.
Data set [16] relates to Rattus norvegicus. In words: Antidiabetic activity in po dosed Zucker fa/fa rat assessed as reduction in plasma glucose AUC administered for 21 days measuredon day 21 administered 1 hr prior to glucose challenge measured up to 120 mins post glucose challenge by oral glucose tolerance test. The format is functional.
For data set [17], the target named is T1, Free fatty acid receptor 1. In words: Agonist activity at human GPR40 expressed in HEK293 cells assessed as increase in intracellular Ca2+ flux by FLIPR assay relative to linoleic acid. The format is functional, cell-based.
In data set [18] the test system is Rattus norvegicus. Description: Antidiabetic activity in po dosed Zucker fa/fa rat assessed as reduction in plasma glucose AUC administered 1 hr prior to glucose challenge measured up to 120 mins post glucose challenge by oral glucose tolerance test. The format is functional.

Structures are written as SMILES. A value given as a limit tells only on which side of the number the result lay.

T1 sequence (O14842 whole entry): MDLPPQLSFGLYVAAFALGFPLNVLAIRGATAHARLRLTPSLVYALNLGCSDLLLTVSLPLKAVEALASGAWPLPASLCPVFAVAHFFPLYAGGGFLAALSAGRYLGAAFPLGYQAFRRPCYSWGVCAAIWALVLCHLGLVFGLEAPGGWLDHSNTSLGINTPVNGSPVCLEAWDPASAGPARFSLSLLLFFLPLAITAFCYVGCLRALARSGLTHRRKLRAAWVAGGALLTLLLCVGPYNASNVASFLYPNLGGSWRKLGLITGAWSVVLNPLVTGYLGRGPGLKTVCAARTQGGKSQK

In general, EC50 refers to the concentration needed to bring the measured effect to its halfway point. Turning to `O=C(O)CCc1ccc2oc(Nc3c(Cl)c(Cl)cc(Cl)c3Cl)nc2c1`, the EC50 in data set [1] stood at 630 nM.
The same measure, in the same setting: in the case of `CC#C[C@@H](CC(=O)O)c1ccc(OCCOc2cccc(Cl)c2)cc1` it was 10 nM.
As to `Cc1cc(OCC2CCOC2)cc(C)c1-c1cccc(COc2ccc(C3(CC(=O)O)COC3)cc2)c1` (stereo not given), the EC50 in [2] was below 100 nM.
Consider `COc1ccc(C)c(N2CC[C@@H](Oc3ccc(N4N=C(C(F)(F)F)[C@@H](C)[C@@H]4CC(=O)O)cc3)[C@H](C)C2)c1`, for which the EC50 in data set [3] came to 71 nM.
In the case of `CO/N=C(\COc1ccc(COc2ccc(C(C#N)CC(=O)O)cc2)cc1)c1ccc(F)cc1` (stereo not given), the EC50 in [4] is below 10 nM.
As for `Cc1cc(OCCO)ccc1-c1cccc(COc2ccc(Cn3oc(=O)[nH]c3=O)cc2)c1`, in [5], the EC50 was determined as 380 nM.
On to `CC#C[C@@H](CC(=O)O)c1ccc(NC(=O)C(=O)Nc2cccc(C(C)(C)C)c2)cc1`, for which the EC50 in data set [1] came out at 0.4 nM. Moreover, the MED in data set [6] is 1 mg/kg.
Regarding `COc1ccc(F)c(-c2ccc(Cc3cccc(N4C[C@H](c5cccc(Cl)c5)C[C@@H]4CC(=O)O)c3)c(C)c2)c1`, the EC50 in data set [3] was 10 nM.
In general, half-life refers to the time in which the quantity being followed falls by half. In the case of `Cc1cc(OCCCS(C)(=O)=O)cc(C)c1-c1cccc(COc2ccc3c(c2)OC[C@H]3CC(=O)O)c1`, the half-life in data set [7] was 28 to 30 h.
Regarding `CCOc1ccc(F)c(N2CC[C@@H](Oc3cnc(N4CC(OC)[C@@H](C)[C@@H]4CC(=O)O)cn3)[C@H](C)C2)c1` (stereo not given in full), in data set [3], the EC50 was determined as 42 nM.
`Cc1cc(OCCC(C)O)cc(C)c1-c1ccc(F)c(COc2cc3c(cn2)[C@@H]2C(C(=O)O)[C@@H]2C3)c1` (stereo not given in full): in [5], the EC50 worked out at 13 nM.
In general, bioavailability refers to dose-corrected exposure relative to a reference, in per cent. For `CC#C[C@@H](CC(=O)O)c1ccc(OCc2cccc(-c3ccc(C(F)(F)F)cc3)c2)cc1`, the half-life in data set [8], in data set [9], in data set [10] and in [15] was 7.2 to 28 h throughout. Also, the bioavailability in data set [11], in [12], in data set [13] and in data set [14] was 67 to 100% throughout.
Turning to `Cc1cc(OC[C@H]2COC(C)(C)O2)cc(C)c1-c1cccc(COc2ccc(-c3cc(O)no3)cc2)c1C`, the EC50 in data set [5] was below 300 nM.
A word on the ED50: it is the dose that gives a 50% effect, or the effect in half of the subjects. Take `CC#C[C@@H](CC(=O)O)c1ccc(OCc2ccc(CN3CCCc4cccc(OC)c43)s2)cc1`: in the data set on Mus musculus, the ED50 came out at 1 mg/kg.
The term Emax denotes the greatest response seen or fitted, relative to the assay's reference. For `CC#C[C@@H](CC(=O)O)c1ccc(OCc2ccc3nc(-c4c(C)cccc4C)nn3c2)cc1`, the ED90 in the data set with Rattus norvegicus [16] is 5 mg/kg; in the data set on Rattus norvegicus [18], 4.1 mg/kg. Moreover, in [17], the Emax worked out at 76%.
